Laboratory results taken from patent US10189819B2, “Factor IXa inhibitors” (MERCK SHARP & DOHME CORP., priority 2014, dated 2019).

These compounds were tested against Factor IXa (Homo sapiens (Human), UniProt P00740) (assay: Determination of inhibitory activity against Factor IXa (cleavage of fluorescent peptide CH3SO2-D-CHG-Gly-Arg-AFC)). Conditions: read-out: FIXa IC50.
Format: biochemical
Method: Determination of Inhibitory Activity Against Factor IXa
Formation of a clot to stem bleeding at a site of blood vessel injury involves the coordinated activity of a group of plasma proteins that initiate and propagate fibrin formation and subsequently protect fibrin from premature degradation. Factor IX is a key component of the plasma system that forms a fibrin clot at a site of vascular injury. The activity of Factor IXa is measured by monitoring the cleavage of the fluorescent peptide, CH3SO2-D-CHG-Gly-Arg-AFC.AcOH (“CHG” is cyclohexyl-glycine and “AFC” is trifluoro aminomethyl coumarin). Factor IXa cleaves the amide bond between Arg and AFC, thereby releasing the AFC fluorophore. The free AFC can be detected with a fluorescence detector at an excitation wavelength of 405 nm and emission wavelength of 510 nm.

Factor IXa, sequence (P00740 227-461): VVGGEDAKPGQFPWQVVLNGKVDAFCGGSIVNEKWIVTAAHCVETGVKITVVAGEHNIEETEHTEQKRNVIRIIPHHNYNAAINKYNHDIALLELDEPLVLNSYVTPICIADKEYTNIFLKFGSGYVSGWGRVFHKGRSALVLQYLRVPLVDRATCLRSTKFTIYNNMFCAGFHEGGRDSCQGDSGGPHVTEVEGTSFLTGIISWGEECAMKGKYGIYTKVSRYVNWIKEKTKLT
Factor IXa, sequence (P00740 47-191 partner): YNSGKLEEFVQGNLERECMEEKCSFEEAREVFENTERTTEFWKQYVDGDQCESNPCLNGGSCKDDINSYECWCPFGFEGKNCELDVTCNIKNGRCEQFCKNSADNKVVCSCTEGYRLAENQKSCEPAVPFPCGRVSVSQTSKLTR

SMILES | IC50 [nM]
Cc1ncn(-c2cc(Cl)c(C(=O)NC[C@@H](c3cccc(F)c3)c3cnc4[nH]c(C)nc4c3)c(Cl)c2)n1 [Example 76, (S)-2,6-dichloro-N-(2-(3-fluorophenyl)-2-(2-methyl-3H-imidazo[4,5-b]pyridin-6-yl)ethyl)-4-(3-methyl-1H-1,2,4-triazol-1-yl)benzamide] | 80.6
Cc1ncn(-c2cc(Cl)c(C(=O)NC[C@@H](c3cccc(F)c3)c3ccc4sc(C)nc4c3)c(Cl)c2)n1 [Example 83, (R)-2,6-dichloro-N-(2-(3-fluorophenyl)-2-(2-methylbenzo[d]thiazol-5-yl)ethyl)-4-(3-methyl-1H-1,2,4-triazol-1-yl)benzamide] | 59.5
Cc1ccc2nn([C@@H](CNC(=O)c3ccc(-n4cnnc4)cc3Cl)c3ccccc3)cc2c1 [Example 84, (R)-2-chloro-N-(2-(5-methyl-2H-indazol-2-yl)-2-phenylethyl)-4-(4H-1,2,4-triazol-4-yl)benzamide] | 240
Cc1ccc2c(cnn2[C@H](CNC(=O)c2ccc(-n3cnnc3)cc2Cl)c2ccccc2)c1 [Example 85, (S)-2-chloro-N-(2-(5-methyl-1H-indazol-1-yl)-2-phenylethyl)-4-(4H-1,2,4-triazol-4-yl)benzamide] | 38
Cc1ccc2c(cnn2[C@H](CNC(=O)c2c(Cl)cc(-n3cc(CCO)nn3)cc2Cl)c2cnco2)c1 [Example 86, (R)-2,6-dichloro-4-(4-(2-hydroxyethyl)-1H-1,2,3-triazol-1-yl)-N-(2-(5-methyl-1H-indazol-1-yl)-2-(oxazol-5-yl)ethyl)benzamide] | 7
Cc1ccc2c([C@H](CNC(=O)c3ccc(-n4cnnc4)cc3Cl)c3ccccc3)n[nH]c2c1 [Example 88, (S)-2-chloro-N-(2-(6-methyl-1H-indazol-3-yl)-2-phenylethyl)-4-(4H-1,2,4-triazol-4-yl)benzamide] | 68.8
Cc1ccc2nn([C@@H](CNC(=O)c3c(Cl)cc(-n4cnnc4)cc3Cl)c3ccccc3)nc2c1 [Example 89, (R)-2,6-dichloro-N-(2-(5-methyl-2H-benzo[d][1,2,3]triazol-2-yl)-2-phenylethyl)-4-(4H-1,2,4-triazol-4-yl)benzamide] | 20.9
Cc1ccc2c(c1)nnn2[C@H](CNC(=O)c1c(Cl)cc(-n2cnnc2)cc1Cl)c1ccccc1 [Example 90, (S)-2,6-dichloro-N-(2-(5-methyl-1H-benzo[d][1,2,3]triazol-1-yl)-2-phenylethyl)-4-(4H-1,2,4-triazol-4-yl)benzamide] | 38
Cc1ccc2nc([C@@H](CNC(=O)c3ccc(-n4cnnc4)cc3Cl)c3ccccc3)[nH]c(=O)c2c1 [Example 91, (R)-2-Chloro-N-(2-(6-methyl-4-oxo-3,4-dihydroquinazolin-2-yl)-2-phenylethyl)-4-(4H-1,2,4-triazol-4-yl)benzamide] | 189
Cc1ncn(-c2cc(Cl)c(C(=O)NC[C@@H](c3cccc(F)c3)c3nc4c(F)ccc(C)c4c(=O)[nH]3)c(Cl)c2)n1 [Example 92, (R)-2,6-dichloro-N-(2-(8-fluoro-5-methyl-4-oxo-3,4-dihydroquinazolin-2-yl)-2-(3-fluorophenyl)ethyl)-4-(3-methyl-1H-1,2,4-triazol-1-yl)benzamide] | 1
Cc1ncn(-c2cc(Cl)c(C(=O)NC[C@@H](c3ccc(F)cc3)c3nc4c(F)ccc(C)c4c(=O)[nH]3)c(Cl)c2)n1 [Example 93, (R)-2,6-dichloro-N-(2-(8-fluoro-5-methyl-4-oxo-3,4-dihydroquinazolin-2-yl)-2-(4-fluorophenyl)ethyl)-4-(3-methyl-1H-1,2,4-triazol-1-yl)benzamide] | 4.6
Cc1ncn(-c2cc(Cl)c(C(=O)NC[C@@H](c3cccc(F)c3)c3nc4c(F)ccc(Cl)c4c(=O)[nH]3)c(Cl)c2)n1 [Example 94, (R)-2,6-dichloro-N-(2-(5-chloro-8-fluoro-4-oxo-3,4-dihydroquinazolin-2-yl)-2-(3-fluorophenyl)ethyl)-4-(3-methyl-1H-1,2,4-triazol-1-yl)benzamide] | 3.5

Same assay, conditions: read-out: hFIXa IC50

SMILES | IC50 [nM]
Cc1ncn(-c2cc(Cl)c(C(=O)NC[C@@H](c3cccc(F)c3)c3cnc4[nH]c(C)cc4c3)c(Cl)c2)n1 [Example 77] | 3.7
Cc1ncn(-c2cc(Cl)c(C(=O)NC[C@@H](c3cccc(F)c3)c3ccc4[nH]c(C)nc4c3F)c(Cl)c2)n1 [Example 78] | 1.93
Cc1ncn(-c2cc(Cl)c(C(=O)NC[C@@H](c3cccc(F)c3)c3cc(F)c4[nH]c(C)nc4c3)c(Cl)c2)n1 [Example 79] | 6.42
Cc1ncn(-c2cc(Cl)c(C(=O)NC[C@@H](c3cccc(F)c3)c3ccc4[nH]c(C)nc4n3)c(Cl)c2)n1 [Example 80] | 16.9
Cc1ncn(-c2cc(Cl)c(C(=O)NCC(c3cccc(F)c3)c3cc4nc(C)[nH]c4cn3)c(Cl)c2)n1 (stereo not drawn) [Example 81] | 126
Cc1ncn(-c2cc(Cl)c(C(=O)NC[C@@H](c3cccc(F)c3)c3cc(C)c4[nH]c(C)nc4c3)c(Cl)c2)n1 [Example 82] | 75.2
Cc1ccc2c([C@H](CNC(=O)c3ccc(-n4cnnc4)cc3Cl)c3cccc(F)c3)c[nH]c2c1 [Example 87] | 31.1
O=C(NCC(c1ccccc1)c1nc2cc(Cl)ccc2c(=O)[nH]1)c1ccc(-n2cnnc2)cc1Cl (stereo not drawn) [Example 95] | 803
O=C(NC[C@@H](c1ccccc1)c1nc2ccc(Cl)cc2c(=O)[nH]1)c1ccc(-n2cnnc2)cc1Cl [Example 96] | 188
O=C(NC[C@@H](c1ccccc1)c1nc2cccc(Cl)c2c(=O)[nH]1)c1ccc(-n2cnnc2)cc1Cl [Example 97] | 51.5
O=C(NC[C@@H](c1ccccc1)c1nc2c(Cl)cccc2c(=O)[nH]1)c1ccc(-n2cnnc2)cc1Cl [Example 98] | 178
O=C(NC[C@@H](c1ccccc1)c1nc2c(Cl)ccc(Cl)c2c(=O)[nH]1)c1ccc(-n2cnnc2)cc1Cl [Example 99] | 43.1
Cc1cccc2nc([C@@H](CNC(=O)c3ccc(-n4cnnc4)cc3Cl)c3ccccc3)[nH]c(=O)c12 [Example 100] | 16.8
Cc1ccc(F)c2nc(C(CNC(=O)c3ccc(-n4cnnc4)cc3Cl)c3ccccc3)[nH]c(=O)c12 (stereo not drawn) [Example 101] | 6.68
Cc1ncn(-c2ccc(C(=O)NC[C@@H](c3ccccc3)c3nc4c(F)ccc(C)c4c(=O)[nH]3)c(Cl)c2)n1 [Example 102] | 10.7
Cc1ncn(-c2ccc(C(=O)NC[C@@H](c3cccc(F)c3)c3nc4c(F)ccc(C)c4c(=O)[nH]3)c(Cl)c2)n1 [Example 103] | 6.35
O=C(O)c1ccc2ncn(-c3ccc(C(=O)NCC(c4cccc(F)c4)c4nc5c(F)ccc(Cl)c5c(=O)[nH]4)c(Cl)c3)c2c1 (stereo not drawn) [Example 104] | 1.97
O=C(O)c1ccc2c(c1)ncn2-c1ccc(C(=O)NCC(c2cccc(F)c2)c2nc3c(F)ccc(Cl)c3c(=O)[nH]2)c(Cl)c1 (stereo not drawn) [Example 105] | 3.32
Cc1ccc(F)c2nc([C@@H](CNC(=O)c3ccc(-c4ccnnc4)cc3Cl)c3cccc(F)c3)[nH]c(=O)c12 [Example 106] | 8.5
Cc1ccc(F)c2nc([C@@H](CNC(=O)c3ccc(-n4cnc(CCO)c4)cc3Cl)c3cccc(F)c3)[nH]c(=O)c12 [Example 107] | 7.3
Cc1ccc(F)c2nc([C@@H](CNC(=O)c3ccc(-c4ccc(=O)n(C)c4)cc3Cl)c3cccc(F)c3)[nH]c(=O)c12 [Example 108] | 9.2
Cc1ccc(F)c2nc([C@@H](CNC(=O)c3ccc(-n4cnn(C)c4=O)cc3Cl)c3cccc(F)c3)[nH]c(=O)c12 [Example 109] | 1.8
Cc1ncn(-c2cc(Cl)c(C(=O)NC[C@@H](c3cccnc3)c3nc4c(F)ccc(C)c4c(=O)n3C)c(Cl)c2)n1 [Example 110] | 8.9
Cc1ccc(F)c2nc([C@@H](CNC(=O)c3ccc(-n4cnnc4C(F)F)cc3Cl)c3cccc(F)c3)[nH]c(=O)c12 [Example 111] | 9.6
Cc1ncn(-c2cc(Cl)c(C(=O)NC[C@@H](c3cccc(F)c3)c3ccc4c(C)ccc(F)c4n3)c(Cl)c2)n1 [Example 113] | 10.4
COc1cc([C@@H](CNC(=O)c2c(Cl)cc(-n3cnc(C)n3)cc2Cl)c2cccc(F)c2)nc2c(F)ccc(C)c12 [Example 114] | 52.2
Cc1ncn(-c2cc(Cl)c(C(=O)NCC(c3cccc(F)c3)c3nc4cc(C)c(C)cc4[nH]c3=O)c(Cl)c2)n1 (stereo not drawn) [Example 116] | 51.1
